Experimental data as given in US11708413B2 (priority 2016, dated 2023).
Read-outs that look alike come from different tables or passages of the source.

Experiments:
K562 (CML) cells = test: Cell killing assay (cell proliferation, Cell Titer-Glo), K562 (CML); format: cell-based; settings: 72 hrs, NK = no killing
Experimental: (§1) Cell lines tested included B-lymphoma, multiple myeloma, and leukemia cells.
(§2) Cytotoxicity effects of the free drug linkers and conjugates were measured with a cell proliferation assay. A total of 12500 cells in a volume of 25 μl were seeded in a 384-well flat bottom white polystyrene plate on the day of assay. Free drug-linkers and conjugates were formulated at 2× starting concentration (1000 nM for free drug linkers and 100 nM for ADCs) in RPMI medium and filtered through MultiScreen HTS 96-Well Filter Plates (Millipore). Filter sterilized samples were serial diluted (1:3) under sterile conditions and added into treatment wells. Plates were cultured at 37° C. in a CO2 incubator for 72 hrs. For cell viability measurement, 30 μl of Cell Titer-Glo® reagent (Promega Corp.) was added into each well, and plates processed as per product instructions. Relative luminescence was measured on an ENVISION® plate reader (Perkin-Elmer; Waltham, Mass.). Relative luminescence readings were converted to % viability using untreated cells as controls. Data was fitted with non-linear regression analysis, using log(inhibitor) vs. response, variable slope, 4 parameter fit equation using GraphPad Prism. Data was expressed as % relative cell viability vs. dose of free drug-linker or conjugate in nM.
(§3) Each of Conjugates A-F was evaluated for the ability to bind and kill cells expressing CD74. […]

ARP-1 (MM) cells = format: cell-based, human
Experimental: as §1, §2, §1

OPM-2 (MM) cells = test: Cell killing assay (cell proliferation, Cell Titer-Glo), OPM-2 (MM); format: cell-based; settings: 72 hrs, NK = no killing
Experimental: as §1, §2, §3

ARD (MM) cells = test: cells; format: cell-based
Experimental: as §1, §2, §1

RPMI-6666 (HL) cells = test: cells; format: cell-based
Experimental: as §1, §2, §1

JVM-13 (CLL) cells = test: cells; format: cell-based
Experimental: as §1, §2, §1

BDCM (AML) cells = test: cells; format: cell-based
Experimental: as §1, §2, §1

SUP-B15 (ALL) cells = test: cells; format: cell-based
Experimental: as §1, §2, §1

RPMI-8226 (MM) cells = test: cells; format: cell-based
Experimental: as §1, §2
(§4) Each of Conjugates A-F was evaluated for the ability to bind and kill cells expressing CD74. Cell lines tested included B-lymphoma, multiple myeloma, and leukemia cells. Controls included unconjugated anti-CD74 antibody.

SU-DHL-6 (NHL) cells = test: cells; format: cell-based, human
Experimental: as §1, §2, §1

[1] = molecular target: T1, CD74 on RPMI-6666 (HL) cells (Homo sapiens, UniProt P04233); test: Cell binding assay (FACS), RPMI-6666 (HL); settings: NB = no binding
T1 construct: endogenous in cells; host or cells: RPMI-6666, SU-DHL-6, ARD, ARP-1, RPMI-8226, OPM-2, BDCM, SUP-B15, JVM-13, K562
T1 sequence (P04233 1-296): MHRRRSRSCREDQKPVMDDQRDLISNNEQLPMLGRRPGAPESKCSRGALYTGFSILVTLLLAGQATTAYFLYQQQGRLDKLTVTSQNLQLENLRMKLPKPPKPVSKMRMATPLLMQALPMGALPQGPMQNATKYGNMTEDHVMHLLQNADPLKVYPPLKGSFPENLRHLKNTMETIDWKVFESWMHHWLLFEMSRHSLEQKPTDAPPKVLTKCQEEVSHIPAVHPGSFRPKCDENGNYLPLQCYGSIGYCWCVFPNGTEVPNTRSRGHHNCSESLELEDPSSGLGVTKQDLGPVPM
Experimental: as §1
(§5) Cell lines were maintained in RPMI, high glucose (Cellgro-Mediatech; Manassas, Va.) supplemented with 20% heat-inactivated fetal bovine serum (Hyclone; Thermo Scientific; Waltham, Mass.), 2 mM glutamax (Invitrogen; Carlsbad, Calif.) and 1×Pencillin/streptomycin (Cellgro-Mediatech; Manassas, Va.). Cells were harvested and re-suspended in FACS buffer (DPBS buffer supplemented with 1% bovine serum albumin). […] Cells were washed twice with ice-cold FACS buffer and incubated with 5 ug/ml Alexa 647 labeled donkey anti-human IgG antibody (Jackson Immune-Research) on ice for another 60 mins. Unstained cells and cells stained with secondary antibody alone were used as controls. Samples were then washed twice using FACS buffer and analyzed using a BD FACS Canto system. Mean fluorescence intensities were fitted using non-linear regression analysis with one site specific binding equation on GraphPad Prism. Data was expressed as geometric mean fluorescent intensity vs. antibody concentration in nM.
as §4

[2] = molecular target: T2, CD74 on JVM-13 (CLL) cells (Homo sapiens, UniProt P04233); test: Cell binding assay (FACS), JVM-13 (CLL); settings: NB = no binding
T2 construct: endogenous in cells; host or cells: RPMI-6666, SU-DHL-6, ARD, ARP-1, RPMI-8226, OPM-2, BDCM, SUP-B15, JVM-13, K562
T2 sequence (P04233 1-296): T1 sequence (P04233 1-296)
Experimental: as §1, §5, §4

CD74 on BDCM (AML) cells = molecular target: T3, CD74 on BDCM (AML) cells (Homo sapiens, UniProt P04233); test: Cell binding assay (FACS), BDCM (AML); settings: NB = no binding
T3 construct: endogenous in cells; host or cells: RPMI-6666, SU-DHL-6, ARD, ARP-1, RPMI-8226, OPM-2, BDCM, SUP-B15, JVM-13, K562
T3 sequence (P04233 1-296): T1 sequence (P04233 1-296)
Experimental: as §1, §5, §4

CD74 on ARP-1 (MM) cells = molecular target: T4, CD74 on ARP-1 (MM) cells (Homo sapiens, UniProt P04233); test: Cell binding assay (FACS), ARP-1 (MM); settings: geometric mean fluorescent intensity, NB = no binding
T4 construct: endogenous in cells; host or cells: RPMI-6666, SU-DHL-6, ARD, ARP-1, RPMI-8226, OPM-2, BDCM, SUP-B15, JVM-13, K562
T4 sequence (P04233 1-296): T1 sequence (P04233 1-296)
Experimental: as §1
as §5, with “Cells” for “Cell lines were maintained in RPMI, high glucose (Cellgro-Mediatech; Manassas, Va.) supplemented with 20% heat-inactivated fetal bovine serum (Hyclone; Thermo Scientific; Waltham, Mass.), 2 mM glutamax (Invitrogen; Carlsbad, Calif.) and 1×Pencillin/streptomycin (Cellgro-Mediatech; Manassas, Va.). Cells”
as §1

[3] = molecular target: T5, CD74 on SUP-B15 (ALL) cells (Homo sapiens, UniProt P04233); test: Cell binding assay (FACS), SUP-B15 (ALL); settings: NB = no binding
T5 construct: endogenous in cells; host or cells: RPMI-6666, SU-DHL-6, ARD, ARP-1, RPMI-8226, OPM-2, BDCM, SUP-B15, JVM-13, K562
T5 sequence (P04233 1-296): T1 sequence (P04233 1-296)
Experimental: as §1, §5, §4

[4] = molecular target: T6, CD74 on RPMI-8226 (MM) cells (Homo sapiens, UniProt P04233); test: Cell binding assay (FACS), RPMI-8226 (MM); settings: NB = no binding
T6 construct: endogenous in cells; host or cells: RPMI-8226
T6 sequence (P04233 1-296): T1 sequence (P04233 1-296)
Experimental: as §1, §5, §4

CD74 on ARD (MM) cells = molecular target: T7, CD74 on ARD (MM) cells (Homo sapiens, UniProt P04233); test: Cell binding assay (FACS), ARD (MM); settings: NB = no binding
T7 construct: endogenous in cells; host or cells: RPMI-6666, SU-DHL-6, ARD, ARP-1, RPMI-8226, OPM-2, BDCM, SUP-B15, JVM-13, K562
T7 sequence (P04233 1-296): T1 sequence (P04233 1-296)
Experimental: as §1, §5, §4

[5] = molecular target: T8, CD74 on SU-DHL-6 (NHL) cells (Homo sapiens, UniProt P04233); test: Cell binding assay (FACS), SU-DHL-6 (NHL); settings: NB = no binding
T8 construct: endogenous in cells; host or cells: SU-DHL-6
T8 sequence (P04233 1-296): T1 sequence (P04233 1-296)
Experimental: as §1, §5, §4

[6] = ARD (MM) cells, 72 hrs, Cell Titer-Glo, NK = no killing
[7] = FACS, geometric mean fluorescent intensity

## COc1cc2cc(c1Cl)N(C)C(=O)C[C@H](OC(=O)[C@H](C)N(C)C(=O)CCCC(=O)N(C)CCOCCOCCOCCOCc1cn(C)nn1)[C@]1(C)O[C@H]1[C@H](C)[C@@H]1C[C@@](O)(NC(=O)O1)[C@H](OC)/C=C/C=C(/C)C2 [Conjugate B]
K562 (CML) cells
  IC50: > 50 nM
ARP-1 (MM) cells; 72 h
  IC50: 16 nM
ARP-1 (MM) cells; ARP-1 (MM) cells, 72 hrs, Cell Titer-Glo, NK = no killing
  Cell Killing Activity Span: 82%
OPM-2 (MM) cells
  IC50: > 50 nM
ARD (MM) cells; 72 h
  IC50: 31 nM
ARD (MM) cells; [6]
  Cell Killing Activity Span: 53%
RPMI-6666 (HL) cells; 72 h
  IC50: 1.3 nM
RPMI-6666 (HL) cells; RPMI-6666 (HL) cells, 72 hrs, Cell Titer-Glo, NK = no killing
  Cell Killing Activity Span: 89%
JVM-13 (CLL) cells; 72 h
  IC50: 2 nM
JVM-13 (CLL) cells; JVM-13 (CLL) cells, 72 hrs, Cell Titer-Glo, NK = no killing
  Cell Killing Activity Span: 69%
BDCM (AML) cells; 72 h
  IC50: 15 nM
BDCM (AML) cells; BDCM (AML) cells, 72 hrs, Cell Titer-Glo, NK = no killing
  Cell Killing Activity Span: 95%
SUP-B15 (ALL) cells; 72 h
  IC50: 5.7 nM
SUP-B15 (ALL) cells; SUP-B15 (ALL) cells, 72 hrs, Cell Titer-Glo, NK = no killing
  Cell Killing Activity Span: 72%
RPMI-8226 (MM) cells; 72 h
  IC50: 51 nM
RPMI-8226 (MM) cells; RPMI-8226 (MM) cells, 72 hrs, Cell Titer-Glo, NK = no killing
  Cell Killing Activity Span: 41%
SU-DHL-6 (NHL) cells; 72 h
  IC50: 1.3 nM
SU-DHL-6 (NHL) cells; SU-DHL-6 (NHL) cells, 72 hrs, Cell Titer-Glo, NK = no killing
  Cell Killing Activity Span: 98%

## COc1cc2cc(c1Cl)N(C)C(=O)C[C@H](OC(=O)[C@H](C)N(C)C(=O)CCCC(=O)N(C)CCOCCOCCOCCOCCC(=O)NCCC(=O)N1Cc3ccccc3C#Cc3ccccc31)[C@]1(C)O[C@H]1[C@H](C)[C@@H]1C[C@@](O)(NC(=O)O1)[C@H](OC)/C=C/C=C(/C)C2 [Free Linker-Drug, DBCO-PEG4-maytansine, reference compound]
K562 (CML) cells; Homo sapiens
  IC50: 60 nM
OPM-2 (MM) cells; Homo sapiens
  IC50: 24 nM
ARD (MM) cells; [6]
  Cell Killing Activity Span: 40%
ARD (MM) cells; ARD (MM) cells, 72 hrs, Cell Titer-Glo, NK = no killing, read-out: Cell Killing Activity IC50
  IC50: ~34 nM
RPMI-6666 (HL) cells; Homo sapiens, RPMI-6666 (HL) cells, 72 hrs, Cell Titer-Glo, NK = no killing, read-out: Cell Killing Activity IC50
  IC50: ~13 nM
JVM-13 (CLL) cells; JVM13, JVM-13 (CLL) cells, 72 hrs, Cell Titer-Glo, NK = no killing, read-out: Cell Killing Activity IC50
  IC50: 25 nM
BDCM (AML) cells; BDCM (AML) cells, 72 hrs, Cell Titer-Glo, NK = no killing, read-out: Cell Killing Activity IC50
  IC50: 13 nM
SUP-B15 (ALL) cells; Homo sapiens, SUP-B15 (ALL) cells, 72 hrs, Cell Titer-Glo, NK = no killing, read-out: Cell Killing Activity IC50
  IC50: 11 nM
RPMI-8226 (MM) cells; Homo sapiens, RPMI-8226 (MM) cells, 72 hrs, Cell Titer-Glo, NK = no killing, read-out: Cell Killing Activity IC50
  IC50: 18 nM
SU-DHL-6 (NHL) cells; Homo sapiens, SU-DHL-6 (NHL) cells, 72 hrs, Cell Titer-Glo, NK = no killing, read-out: Cell Killing Activity IC50
  IC50: 15 nM

B1: anti-CD74 (antibody, V domains shown)
VH: QVQLVESGGGVVQPGRSLRLSCAASGFNFSDYGMHWVRQAPGKGLEWVAVIWYDGSISYYADSVKGRFTISRDNSKNTLYLQMNSLRAEDTAVYYCARGGTVEHGAVYGTDVWGQGTTVTVSS
VL: DIQMTQSPSSVSASVGDRVTITCRASQGIGSWLAWYQQKPGKAPKLLIYAADRLQSGVPSRFSGSGSGTDFTLTISSLQPEDFATYYCQQYHTYPLTFGGGTKVEIK
[1]; [7]
  Bmax: 3879
[1]; cell binding
  Kd: 2.3 nM
[2]; [7]
  Bmax: 447
[2]; cell binding
  Kd: 2.5 nM
CD74 on BDCM (AML) cells; [7]
  Bmax: 3059
CD74 on BDCM (AML) cells; cell binding
  Kd: 4.5 nM
CD74 on ARP-1 (MM) cells
  Bmax: 341
[3]; [7]
  Bmax: 680
[3]; cell binding
  Kd: 3.5 nM
[4]; [7]
  Bmax: 119
[4]; cell binding
  Kd: 3.6 nM
CD74 on ARD (MM) cells; [7]
  Bmax: 190
CD74 on ARD (MM) cells; cell binding
  Kd: 2.6 nM
[5]; [7]
  Bmax: 1565
[5]; cell binding
  Kd: 2 nM
